From ChEMBL document CHEMBL1140446, “Designed multiple ligands. An emerging drug discovery paradigm” (J Med Chem, 2005)

Key:
[1] = target: T1, Sodium-dependent serotonin transporter (Homo sapiens, UniProt P31645)
Description: Inhibition constant against serotonin transporter

[2] = target: T2, 5-hydroxytryptamine receptor 1A (Homo sapiens, UniProt P08908)
T2 sequence (P08908 whole entry): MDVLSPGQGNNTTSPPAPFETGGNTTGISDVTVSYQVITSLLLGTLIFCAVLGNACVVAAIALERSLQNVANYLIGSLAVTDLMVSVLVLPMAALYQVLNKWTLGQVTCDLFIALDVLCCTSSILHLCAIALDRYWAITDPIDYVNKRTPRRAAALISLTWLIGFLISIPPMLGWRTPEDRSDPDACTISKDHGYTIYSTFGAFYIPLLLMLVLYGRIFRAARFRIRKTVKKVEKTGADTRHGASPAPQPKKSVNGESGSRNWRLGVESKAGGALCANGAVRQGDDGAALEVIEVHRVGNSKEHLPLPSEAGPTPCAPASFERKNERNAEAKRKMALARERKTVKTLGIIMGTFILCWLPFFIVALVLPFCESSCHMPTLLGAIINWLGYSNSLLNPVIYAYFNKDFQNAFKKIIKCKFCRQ
Description: Inhibition constant against 5-hydroxytryptamine 1A receptor

[3] = target: T1, Sodium-dependent serotonin transporter; experiment: Negative logarithm causing 50% receptor occupancy against serotonin transporter
[4] = target: T3, Adrenergic receptor alpha-1 (Homo sapiens, UniProt P35348+P25100+P35368); experiment: Inhibition constant against alpha adrenergic receptor; assay type: protein assay
T3 sequence (P35348 whole entry): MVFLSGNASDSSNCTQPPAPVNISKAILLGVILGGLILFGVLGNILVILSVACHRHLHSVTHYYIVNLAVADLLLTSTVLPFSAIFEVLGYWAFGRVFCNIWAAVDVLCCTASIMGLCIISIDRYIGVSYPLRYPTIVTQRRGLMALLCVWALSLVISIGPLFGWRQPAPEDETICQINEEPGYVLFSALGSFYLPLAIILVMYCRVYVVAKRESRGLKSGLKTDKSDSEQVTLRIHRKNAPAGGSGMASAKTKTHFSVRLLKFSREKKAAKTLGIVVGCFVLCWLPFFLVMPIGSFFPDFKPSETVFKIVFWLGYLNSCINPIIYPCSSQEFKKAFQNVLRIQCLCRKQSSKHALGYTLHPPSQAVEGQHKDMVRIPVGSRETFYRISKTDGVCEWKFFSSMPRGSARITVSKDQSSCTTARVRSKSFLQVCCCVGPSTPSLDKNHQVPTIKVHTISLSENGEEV
T3 sequence (P25100 whole entry): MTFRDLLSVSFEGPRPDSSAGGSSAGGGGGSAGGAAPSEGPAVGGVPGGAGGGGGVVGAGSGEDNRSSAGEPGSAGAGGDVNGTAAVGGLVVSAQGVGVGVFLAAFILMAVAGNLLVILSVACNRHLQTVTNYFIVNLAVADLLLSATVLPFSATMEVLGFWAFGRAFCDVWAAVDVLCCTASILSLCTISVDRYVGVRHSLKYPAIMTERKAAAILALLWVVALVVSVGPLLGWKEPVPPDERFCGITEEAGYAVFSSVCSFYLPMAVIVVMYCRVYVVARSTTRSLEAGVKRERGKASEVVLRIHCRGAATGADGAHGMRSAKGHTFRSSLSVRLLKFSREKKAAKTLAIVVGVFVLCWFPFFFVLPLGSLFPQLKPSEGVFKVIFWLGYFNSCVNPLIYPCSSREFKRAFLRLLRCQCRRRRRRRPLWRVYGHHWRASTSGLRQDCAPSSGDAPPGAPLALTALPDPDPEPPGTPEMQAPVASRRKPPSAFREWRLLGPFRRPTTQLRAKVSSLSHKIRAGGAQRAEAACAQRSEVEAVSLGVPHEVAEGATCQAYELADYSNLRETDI
T3 sequence (P35368 whole entry): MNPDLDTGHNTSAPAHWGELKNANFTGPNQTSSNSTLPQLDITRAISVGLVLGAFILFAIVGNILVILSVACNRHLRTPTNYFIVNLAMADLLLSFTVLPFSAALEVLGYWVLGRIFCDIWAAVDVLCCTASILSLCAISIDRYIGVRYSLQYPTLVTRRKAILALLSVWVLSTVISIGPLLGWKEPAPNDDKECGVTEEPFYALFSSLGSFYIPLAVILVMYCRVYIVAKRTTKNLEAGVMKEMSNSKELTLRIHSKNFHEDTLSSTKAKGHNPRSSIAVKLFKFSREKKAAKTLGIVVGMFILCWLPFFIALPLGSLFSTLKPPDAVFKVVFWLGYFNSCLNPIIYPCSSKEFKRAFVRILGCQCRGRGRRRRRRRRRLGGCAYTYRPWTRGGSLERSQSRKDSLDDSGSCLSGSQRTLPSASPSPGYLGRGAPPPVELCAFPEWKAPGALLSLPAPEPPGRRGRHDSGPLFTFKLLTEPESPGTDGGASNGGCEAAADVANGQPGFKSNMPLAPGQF

[5] = target: T4, Polyunsaturated fatty acid 5-lipoxygenase (Homo sapiens, UniProt P09917); experiment: Inhibitory concentration against arachidonate 5-lipoxygenase
T4 sequence (P09917 whole entry): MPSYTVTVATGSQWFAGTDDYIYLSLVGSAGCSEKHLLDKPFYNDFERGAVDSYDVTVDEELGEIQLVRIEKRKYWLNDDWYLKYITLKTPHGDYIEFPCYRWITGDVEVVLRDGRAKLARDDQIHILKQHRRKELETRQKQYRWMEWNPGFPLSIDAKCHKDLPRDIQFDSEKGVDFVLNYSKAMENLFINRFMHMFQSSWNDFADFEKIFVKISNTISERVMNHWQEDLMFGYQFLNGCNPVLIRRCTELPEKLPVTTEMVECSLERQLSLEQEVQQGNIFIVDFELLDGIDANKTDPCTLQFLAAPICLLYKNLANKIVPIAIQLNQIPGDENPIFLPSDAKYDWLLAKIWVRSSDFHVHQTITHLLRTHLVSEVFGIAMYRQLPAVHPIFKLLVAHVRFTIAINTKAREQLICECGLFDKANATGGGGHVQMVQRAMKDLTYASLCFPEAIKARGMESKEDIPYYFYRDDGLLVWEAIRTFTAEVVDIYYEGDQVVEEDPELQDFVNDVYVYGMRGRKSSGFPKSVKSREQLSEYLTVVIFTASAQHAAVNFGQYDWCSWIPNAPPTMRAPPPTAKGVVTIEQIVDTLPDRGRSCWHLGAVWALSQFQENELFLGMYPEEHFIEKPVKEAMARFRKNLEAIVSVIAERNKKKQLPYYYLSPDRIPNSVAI

[6] = target: Cyclooxygenase (Homo sapiens, UniProt P35354+P23219)
Description: Inhibitory concentration against prostaglandin G/H synthase

[7] = target: T5, Peroxisome proliferator-activated receptor alpha (Homo sapiens, UniProt Q07869)
T5 sequence (Q07869 whole entry): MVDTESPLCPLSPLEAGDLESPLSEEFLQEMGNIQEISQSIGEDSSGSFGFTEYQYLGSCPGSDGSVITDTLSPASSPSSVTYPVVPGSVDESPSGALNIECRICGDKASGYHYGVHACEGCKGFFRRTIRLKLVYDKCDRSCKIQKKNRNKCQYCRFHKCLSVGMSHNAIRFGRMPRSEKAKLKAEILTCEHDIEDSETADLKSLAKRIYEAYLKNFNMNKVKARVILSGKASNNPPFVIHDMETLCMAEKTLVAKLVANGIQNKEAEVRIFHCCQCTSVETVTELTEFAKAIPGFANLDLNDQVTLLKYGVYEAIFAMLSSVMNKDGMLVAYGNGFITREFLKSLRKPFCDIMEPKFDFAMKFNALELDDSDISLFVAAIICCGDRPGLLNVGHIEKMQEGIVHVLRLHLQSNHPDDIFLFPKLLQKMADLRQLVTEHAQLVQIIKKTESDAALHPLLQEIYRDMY
Description: Binding affinity towards peroxisome proliferator activated receptor alpha

[8] = target: T6, Peroxisome proliferator-activated receptor delta (Homo sapiens, UniProt Q03181)
T6 sequence (Q03181 whole entry): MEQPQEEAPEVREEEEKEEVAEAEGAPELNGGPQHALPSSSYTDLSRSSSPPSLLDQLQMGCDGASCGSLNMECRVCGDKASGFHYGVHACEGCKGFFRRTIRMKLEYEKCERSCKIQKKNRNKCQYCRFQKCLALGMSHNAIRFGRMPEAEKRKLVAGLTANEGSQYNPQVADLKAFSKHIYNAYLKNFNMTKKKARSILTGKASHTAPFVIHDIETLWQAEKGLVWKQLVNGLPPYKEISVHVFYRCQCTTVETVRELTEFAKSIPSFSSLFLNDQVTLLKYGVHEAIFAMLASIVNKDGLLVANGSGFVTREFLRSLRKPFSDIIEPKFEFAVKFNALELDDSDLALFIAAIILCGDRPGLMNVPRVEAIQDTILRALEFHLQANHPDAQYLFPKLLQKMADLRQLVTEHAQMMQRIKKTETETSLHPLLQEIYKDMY
Description: Binding affinity towards peroxisome proliferator activated receptor delta

[9] = target: T7, Peroxisome proliferator-activated receptor gamma (Homo sapiens, UniProt P37231)
T7 sequence (P37231 whole entry): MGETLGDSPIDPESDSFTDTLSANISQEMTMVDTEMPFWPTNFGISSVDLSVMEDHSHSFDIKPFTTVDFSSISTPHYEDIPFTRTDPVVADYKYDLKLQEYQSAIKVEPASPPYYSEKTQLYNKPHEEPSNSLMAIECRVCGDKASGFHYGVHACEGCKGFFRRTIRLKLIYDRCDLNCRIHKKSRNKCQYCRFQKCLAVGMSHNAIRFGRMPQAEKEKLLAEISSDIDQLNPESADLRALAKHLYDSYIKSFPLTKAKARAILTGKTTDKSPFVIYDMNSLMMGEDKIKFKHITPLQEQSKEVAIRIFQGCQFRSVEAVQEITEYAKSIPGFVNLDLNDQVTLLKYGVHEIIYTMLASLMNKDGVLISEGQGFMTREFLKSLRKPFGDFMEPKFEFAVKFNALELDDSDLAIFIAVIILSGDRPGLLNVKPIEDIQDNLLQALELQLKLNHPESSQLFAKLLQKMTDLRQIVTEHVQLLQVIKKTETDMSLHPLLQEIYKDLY
Description: Binding affinity towards peroxisome proliferator activated receptor gamma

[10] = target: T8, Substance-K receptor (Homo sapiens, UniProt P21452)
T8 sequence (P21452 whole entry): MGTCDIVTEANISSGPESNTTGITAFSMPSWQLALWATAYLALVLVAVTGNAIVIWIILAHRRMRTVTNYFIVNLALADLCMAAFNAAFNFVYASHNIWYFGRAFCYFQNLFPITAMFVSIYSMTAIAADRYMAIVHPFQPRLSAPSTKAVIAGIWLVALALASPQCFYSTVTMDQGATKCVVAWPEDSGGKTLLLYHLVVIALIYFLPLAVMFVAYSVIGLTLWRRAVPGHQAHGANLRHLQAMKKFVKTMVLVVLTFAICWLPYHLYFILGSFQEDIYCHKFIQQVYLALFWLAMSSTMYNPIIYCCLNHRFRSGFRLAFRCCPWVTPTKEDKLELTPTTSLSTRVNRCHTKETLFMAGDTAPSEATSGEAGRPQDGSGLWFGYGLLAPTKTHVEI
Description: Inhibitory concentration against tachykinin receptor 2

[11] = target: T1, Sodium-dependent serotonin transporter; remark: listed apart in the source
Description: Inhibitory concentration against serotonin transporter

[12] = target: T3, Adrenergic receptor alpha-1
Description: Inhibitory concentration against alpha adrenergic receptor

[13] = target: T4, Polyunsaturated fatty acid 5-lipoxygenase

T1 sequence (P31645 whole entry): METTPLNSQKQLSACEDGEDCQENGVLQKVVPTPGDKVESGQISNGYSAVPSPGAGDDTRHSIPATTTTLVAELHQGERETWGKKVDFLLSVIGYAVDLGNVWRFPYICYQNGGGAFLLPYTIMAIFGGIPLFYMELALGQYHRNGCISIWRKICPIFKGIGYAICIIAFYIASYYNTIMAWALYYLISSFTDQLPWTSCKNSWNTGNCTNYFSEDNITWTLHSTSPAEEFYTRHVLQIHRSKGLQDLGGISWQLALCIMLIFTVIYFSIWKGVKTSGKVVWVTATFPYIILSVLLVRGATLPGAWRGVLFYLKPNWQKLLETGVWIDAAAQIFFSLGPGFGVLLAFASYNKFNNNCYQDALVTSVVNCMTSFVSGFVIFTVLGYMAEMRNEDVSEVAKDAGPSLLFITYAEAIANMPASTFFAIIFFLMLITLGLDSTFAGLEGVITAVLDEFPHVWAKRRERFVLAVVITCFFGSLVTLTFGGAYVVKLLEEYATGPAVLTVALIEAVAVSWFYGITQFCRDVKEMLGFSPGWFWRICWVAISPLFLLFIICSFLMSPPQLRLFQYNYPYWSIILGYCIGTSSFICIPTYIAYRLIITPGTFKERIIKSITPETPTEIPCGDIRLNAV

CN(C)CC(O)COc1cccc2[nH]ccc12 (stereo not given)
Ki [1]: > 7000 nM
Ki [2]: 24 nM

CC(COc1ccc2c(c1)NC(=O)CO2)NCC(O)COc1cccc2[nH]ccc12 (stereo not given)
Ki [3]: 50.1 nM

O=C1COc2ccc(OCCNCCCOc3cccc4[nH]ccc34)cc2N1
Ki [3]: 79.4 nM

C1=C(c2c[nH]c3ncccc23)CCN(CCOc2cccc3[nH]ccc23)C1
Ki [1]: 1.5 nM
Ki [4]: 1 nM

CC(C)(C)c1cc(C(=O)c2cccs2)cc(C(C)(C)C)c1O [PRIFELONE]
IC50 [5]: 20000 nM
IC50 [6]: 500 nM

CC(C)(C)c1cc(C=C2SC(N)=NC2=O)cc(C(C)(C)C)c1O
IC50 [5]: 770 nM
IC50 [6]: 390 nM

COc1ccc(-n2nc(C#CC(C)N(O)C(C)=O)cc2-c2ccc(Cl)cc2)cc1 (stereo not given)
IC50 [5]: 110 nM
IC50 [6]: 30 nM

CCO[C@@H](Cc1ccc(OCCn2c3ccccc3c3ccccc32)cc1)C(=O)O
Kd [7]: 360 nM
Kd [8]: 3000 nM
Kd [9]: 170 nM

COc1ccccc1CN[C@H]1C2CCN(CC2)[C@@H]1C(c1ccccc1)c1ccccc1
IC50 [10]: > 10000 nM

CN(C)C(=O)Oc1ccc2c(c1)C=CCN(C)[C@@H]2CCOc1ccc([N+](=O)[O-])cc1
IC50 [11]: 6 nM

COc1cccc2c1CCCC2CN(C)CCc1ccc2c(c1)OCO2 (stereo not given)
IC50 [11]: 21 nM
Ki [2]: 6.7 nM

CCOC(Cc1ccc(OCCN(C)C2=Nc3ccccc3Sc3ccccc32)cc1)C(=O)O (stereo not given)
Kd [7]: 7500 nM
Kd [9]: 9800 nM

O=C(CN1CCN(Cc2ccc(Cl)cc2)CC1)N1CCc2ccccc21
IC50 [12]: 88 nM

CCO[C@@H](Cc1ccc(OCC=C(c2ccc(-c3ccccc3)cc2)c2ccc(-c3ccccc3)cc2)cc1)C(=O)O
Kd [7]: 1100 nM
Kd [8]: 500 nM
Kd [9]: 300 nM

Cc1c(O)c(C)c2sc(NCc3ccc(S(N)(=O)=O)cc3)nc2c1C
IC50 [13]: 230 nM

CN1[C@@H]2CC[C@H]1C[C@@H](OC(=O)c1c[nH]c3ccccc13)C2 [TROPISETRON]
Ki [2]: 5.3 nM

CCO[C@@H](Cc1ccc(OCC=C(c2ccccc2)c2ccccc2)cc1)C(=O)O
Kd [7]: 6400 nM
Kd [8]: 5700 nM
Kd [9]: 2700 nM

COc1cccc2c1CCCC2CN(C)CCc1cccc(F)c1 (stereo not given)
IC50 [11]: 160 nM
Ki [2]: 3.2 nM

O=C1Cc2cc(CCN3CCN(c4nsc5ccccc45)CC3)c(Cl)cc2N1 [ZIPRASIDONE]
IC50 [12]: 11 nM

CCN(CC)C(=O)[C@@]1(c2ccccc2)CC1CNCC(O)COc1cccc2[nH]ccc12 (stereo not given in full)
IC50 [11]: 120 nM
Ki [2]: 45 nM
